Experimental data published in patent publication US5493020A, “Tricyclic inhibitors of the GPIIb IIIa receptor” (Genentech, Inc., priority 1993, dated 1996).
pIC50: −log10 of the molar value. Read-outs that look alike come from different tables or passages of the source. Each block holds one molecule with its values, some of them ahead of it.

Assays:
GPIIb IIIa = conditions: result in words, EP 372 486 (Hoffmann La Roche); cited from earlier work
[1] = molecular target: T1, human platelet GPIIbIIIa receptor (Homo sapiens, UniProt P05106+P08514); assay: modified fibrinogen-GPIIbIIIa ELISA (inhibition of fibrinogen binding to purified human platelet GPIIbIIIa receptor)
T1 construct: purified human platelet GPIIbIIIa receptor; from tissue; host or cells: human platelets (purified, solubilized receptor)
T1 sequence (P08514 32-887 limits assumed): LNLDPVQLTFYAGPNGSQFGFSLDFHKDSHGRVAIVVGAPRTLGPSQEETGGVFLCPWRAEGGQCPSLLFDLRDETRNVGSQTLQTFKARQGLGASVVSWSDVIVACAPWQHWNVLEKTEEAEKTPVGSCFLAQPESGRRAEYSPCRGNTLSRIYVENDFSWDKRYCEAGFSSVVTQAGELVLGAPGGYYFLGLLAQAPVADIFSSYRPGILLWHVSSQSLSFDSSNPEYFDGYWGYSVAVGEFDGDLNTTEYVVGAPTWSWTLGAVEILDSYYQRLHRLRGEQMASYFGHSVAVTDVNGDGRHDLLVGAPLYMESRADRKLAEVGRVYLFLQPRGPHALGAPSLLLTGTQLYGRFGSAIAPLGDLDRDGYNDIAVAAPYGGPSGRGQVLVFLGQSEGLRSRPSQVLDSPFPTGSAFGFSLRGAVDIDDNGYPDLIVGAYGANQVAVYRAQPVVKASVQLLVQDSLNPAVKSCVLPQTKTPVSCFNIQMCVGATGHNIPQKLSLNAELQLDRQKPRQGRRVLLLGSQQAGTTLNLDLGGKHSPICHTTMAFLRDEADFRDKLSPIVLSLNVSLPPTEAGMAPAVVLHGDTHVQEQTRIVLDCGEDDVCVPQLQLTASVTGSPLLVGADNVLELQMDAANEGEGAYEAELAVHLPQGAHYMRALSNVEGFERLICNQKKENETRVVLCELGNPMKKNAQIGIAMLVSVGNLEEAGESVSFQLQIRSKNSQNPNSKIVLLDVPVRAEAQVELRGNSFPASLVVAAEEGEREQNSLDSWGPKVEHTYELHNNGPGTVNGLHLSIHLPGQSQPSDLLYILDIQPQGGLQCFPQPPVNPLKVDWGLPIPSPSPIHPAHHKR
T1 sequence (P08514 891-1039 limits assumed): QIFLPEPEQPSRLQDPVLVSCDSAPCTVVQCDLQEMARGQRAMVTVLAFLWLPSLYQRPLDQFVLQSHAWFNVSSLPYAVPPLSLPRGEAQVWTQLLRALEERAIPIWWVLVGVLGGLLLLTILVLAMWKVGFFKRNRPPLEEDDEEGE
T1 sequence (P05106 27-788): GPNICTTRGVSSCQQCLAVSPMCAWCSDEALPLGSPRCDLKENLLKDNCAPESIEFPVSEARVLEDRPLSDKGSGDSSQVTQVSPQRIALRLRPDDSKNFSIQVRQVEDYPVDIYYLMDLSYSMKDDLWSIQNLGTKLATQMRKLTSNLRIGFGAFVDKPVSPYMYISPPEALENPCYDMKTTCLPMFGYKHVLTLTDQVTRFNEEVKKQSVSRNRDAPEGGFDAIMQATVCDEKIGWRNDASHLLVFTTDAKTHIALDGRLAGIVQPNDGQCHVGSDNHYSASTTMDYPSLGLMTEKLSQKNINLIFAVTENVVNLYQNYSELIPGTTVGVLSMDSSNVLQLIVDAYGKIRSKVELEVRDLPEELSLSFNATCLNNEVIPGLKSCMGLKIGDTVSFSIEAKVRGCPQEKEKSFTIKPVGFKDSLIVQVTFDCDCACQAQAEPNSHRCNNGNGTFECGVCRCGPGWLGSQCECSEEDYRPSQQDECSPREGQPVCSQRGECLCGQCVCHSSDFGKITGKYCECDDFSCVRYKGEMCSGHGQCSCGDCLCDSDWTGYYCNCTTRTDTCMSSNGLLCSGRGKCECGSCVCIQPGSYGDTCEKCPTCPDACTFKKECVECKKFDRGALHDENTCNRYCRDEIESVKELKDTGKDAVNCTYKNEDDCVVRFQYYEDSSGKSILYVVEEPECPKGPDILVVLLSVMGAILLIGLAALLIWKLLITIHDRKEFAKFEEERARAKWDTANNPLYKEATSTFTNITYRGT
Description: In-vitro biological activity of the compounds of Formula I and II are monitored using a modified fibrinogen-GPIIbIIIa ELISA based on the method of Nachman and Leung (J. Clin. Invest. 69:263-269 (1982)) which measures the inhibition of fibrinogen binding to purified human platelet GPIIbIIIa receptor. Human fibrinogen is prepared by the method of Lipinska, et al. (J. Lab. Clin. Med. 84:509-516 (1974)). Platelet GPIIb IIIa is prepared by the method of Fitzgerald, et al., Anal. Biochem.,151:169-177 (1985).
Briefly, microtiter plates are coated with fibrinogen ([…]) and then blocked with TACTS buffer containing 0.5% bovine serum albumin (BSA). (TACTS buffer contains 20mM Tris.HCl, pH 7.5, 0.02% sodium azide, 2 mM calcium chloride, 0.05% Tween 20, 150 mM sodium chloride.) The plate is washed with phosphate buffered saline (PBS) containing 0.01% Tween 20 and the sample to be determined added, followed by addition of solubilized GP IIbIIIa receptor ([…]) in TACTS, 0.5% BSA. After incubation, the plate is washed and 1 mg/ml of murine anti-platelet monoclonal antibody AP3 (Newman et al., Blood 65:227-232 (1985)) is added. After another wash a goat anti-mouse IgG conjugated to horseradish peroxidase is added. A final wash is performed and developing reagent buffer (10 mg o-phenylenediamine dihydrochloride, 0.0212% hydrogen peroxide, 0.22 mM citrate, 50 mM phosphate, pH 5.0) is added and then incubated until color develops. The reaction is stopped with 1N sulfuric acid and the absorbance at 492 nm is recorded.

[2] = system: human platelet rich plasma (platelet aggregation); assay: platelet aggregation (PA) inhibition assay in human platelet rich plasma; type: cell-based
Description: In addition to the GPIIb IIIa ELISA assay, platelet aggregation assays may be performed in human platelet rich plasma (PRP). […] The blood is centrifuged at 160×g for 10 min at 22° C. and then allowed to stand for 5 min after which the PRP is decanted. Platelet poor plasma (PPP) is isolated from the remaining blood after centrifugation at 2000×g for 25 min. The platelet count of the PRP is adjusted to ca. 300,000 per microliter with PPP.
A 225 mL aliquot of PRP plus 25 mL of either a dilution of the test sample or a control (PBS) is incubated for 5 min in a Chrono-log Whole Blood Aggregometer at 25° C. An aggregating agent (collagen, 1 mg/ml; U46619, 100 ng/ml; or ADP, 8 mM) is added and the platelet aggregation recorded.

[3] = ELISA, read-out: IC50 Fg/IIbIIIa
[4] = Platelet, read-out: IC50 PA(citrate)
[5] = Platelet, read-out: IC50 PA(heparin)
[6] = platelet aggregation, citrate, read-out: IC50 PA(citrate)
[7] = platelet aggregation, heparin, read-out: IC50 PA(heparin)

Structure (SMILES): N=C(N)c1ccc(C(=O)Nc2cccc(C(=O)NCCC(=O)O)c2)cc1 [drawing 2]
- IC50 in an ELISA measurement of fibrinogen GPIIb IIIa binding (GPIIb IIIa): particular low IC50

Structure (SMILES): Cc1cnc2n1-c1ccc(OCc3ccc(C(=N)N)cc3)cc1C(=O)N(CCC(=O)O)C2 [p-H2 N(NH)CC6 H4 CH2 O]
- pIC50 [1, 3]: 8.05
- pIC50 [2, 4]: 6.88
- pIC50 [2, 5]: 6.66

Structure (SMILES): Cc1nnc2n1-c1ccc(OCc3ccc(C(=N)N)cc3)cc1C(=O)N(CCC(=O)O)C2 [p-H2 N(NH)CC6 H4 CH2 O]
- pIC50 [2, 6]: 8.30
- pIC50 [2, 7]: 7.07

Structure (SMILES): Cc1cnc2n1-c1ccc(C#CCCCCN)cc1C(=O)N(CCC(=O)O)C2 [H2 N(CH2)4 CC]
- pIC50 [1, 3]: 7.24
- pIC50 [2, 4]: 5.08

- pIC50 ([1]; internal standard, measured according to the assays described herein, read-out: Fg/GPIIb IIIa ELISA IC50): ~7.60
- pIC50 ([2]; Platelet, internal standard, measured according to the assays described herein, anticoagulant not stated, read-out: PA inhibition assay IC50): ~5.52
Structure (SMILES): N=C(N)c1ccc(C(=O)Nc2cccc(C(=O)NCCC(=O)O)c2)cc1 [N-[3-(4-amidinobenzamido)benzoyl]-3-aminoproprionoic acid, reference compound]

Structure (SMILES): Cc1cnc2n1-c1ccc(C#Cc3ccc(C(=N)N)cc3)cc1C(=O)N(CCC(=O)O)C2 [p-H2 N(NH)CC6 H4 CC]
- pIC50 [1, 3]: 8.40
- pIC50 [2, 4]: 7.03
- pIC50 [2, 5]: 6.62

- pIC50 [2, 6]: 6.27
- pIC50 [2, 7]: 5.77
Structure (SMILES): N=C(N)c1ccc(COc2ccc3c(c2)C(=O)N(CCC(=O)O)Cc2nc4ccccc4c(=O)n2-3)cc1 [p-H2 N(NH)CC6 H4 CH2 O]
